Results from patent US20150342194A1, “NON-PHYTOTOXIC COMPOSITE POLYMER FILM BARRIER AS A REPELLENT FOR CONTROLLING INFECTION” (priority 2014, published 2015).

Legend:
[1] = test system: Asian Citrus Psyllid (ACP, Diaphorina citri); details: field trials, literature [7-9]; cited from earlier work
Vinca sp = experiment: Phytotoxicity (plant tissue injury) testing on Vinca sp.; assay type: in vivo; set-up: key: −: No plant tissue damage; +: Minimal; ++: moderate; +++: severe plant tissue damage
Description: FIGS. 2A to 2C illustrate phytotoxicity (plant tissue injury) results. FIG. 2A illustrates untreated, FIG. 2B illustrates OSCF nanoparticle, and FIG. 2C illustrates OSCF nanogel film materials, sprayed on Vinca. sp. Under green-house conditions, approximately 5 mL of synthesized formula was sprayed on plants at 7:30 AM on the test day. After 72 hrs, all treatments were non-phytotoxic (−) to plants.
FIG. 1 illustrates digital photographs of some representative citrus leaf surfaces before and after rigorous spray washing with water (simulating over 6 inches of rainfall). Phytotoxicity studies were carried out using Vinca sp. (an ornamental plant, highly susceptible to phytotoxicity; purchased from Home Depot).
(§1) Tables 2 and 3, Example 2, illustrate phytotoxicity testing of embodiments of the present disclosure.

Tomato sp = experiment: Phytotoxicity testing on Tomato sp; assay type: in vivo; set-up: key: −: No plant tissue damage; +: Minimal; ++: moderate; +++: severe plant tissue damage
Source text: as §1

Citrus (Persian Lime) = experiment: Phytotoxicity testing on Citrus (Persian Lime); assay type: in vivo; set-up: key: −: No plant tissue damage; +: Minimal; ++: moderate; +++: severe plant tissue damage
Source text: as §1

[2] = test system: Asian Citrus Psyllid (ACP, Diaphorina citri); details: chemical repellants, literature [11-13]; cited from earlier work

CCOP(=S)(OCC)Oc1nc(Cl)c(Cl)cc1Cl [chlorpyrifos]
Controlling ACP populations [1]: effective in controlling ACP populations

CN1COCN(Cc2cnc(Cl)s2)/C1=N\[N+](=O)[O-] [thiamethoxam]
Controlling ACP populations [1]: effective in controlling ACP populations

O=[N+]([O-])NC1=NCCN1Cc1ccc(Cl)nc1 [imidacloprid]
Controlling ACP populations [1]: effective in controlling ACP populations

O=S(=O)([O-])[O-].[Cu+2] [CuSO4]
Phytotoxicity, plant tissue damage (Vinca sp; 24 hr, Table 2): + | Phytotoxicity, plant tissue damage (Vinca sp; 24 hr, Table 3): + | Phytotoxicity, plant tissue damage (Vinca sp; 48 hr, Table 2): ++ | Phytotoxicity, plant tissue damage (Vinca sp; 48 hr, Table 3): ++ | Phytotoxicity, plant tissue damage (Vinca sp; 72 hr, Table 2): +++ | Phytotoxicity, plant tissue damage (Vinca sp; 72 hr, Table 3): +++ | Phytotoxicity, plant tissue damage (Tomato sp; 24 hr): + | Phytotoxicity, plant tissue damage (Tomato sp; 48 hr): ++ | Phytotoxicity, plant tissue damage (Tomato sp; 72 hr): +++ | Phytotoxicity, plant tissue damage (Citrus (Persian Lime); 24 hr): + | Phytotoxicity, plant tissue damage (Citrus (Persian Lime); 48 hr): ++ | Phytotoxicity, plant tissue damage (Citrus (Persian Lime); 72 hr): +++

CC1(C)C(C(=O)OC(C#N)c2cccc(Oc3ccccc3)c2)C1(C)C (stereo not drawn) [fenpropathrin]
Controlling ACP populations [1]: effective in controlling ACP populations

CN/C(=N\[N+](=O)[O-])NCc1cnc(Cl)s1 [clothianidin]
Controlling ACP populations [1]: effective in controlling ACP populations

CSSC [dimethyldisulfide (DMDS), dimethyldisulfide]
ACP repellant properties [2]: moderate ACP repellant properties
